According to US7112605B2, “Sulfonyl-containing 3,4-diaryl-3-pyrrolin-2-ones, preparation method, and medical use thereof” (Research Institute of Materia Medica Chinese Acadamy of …, priority 2002, dated 2006):
pIC50: −log10 of the molar value. Like-named read-outs stand apart in the source and are kept apart here.

Tests used:
[1] = test system: rat carrageenan-induced foot pad edema; test: Rat carrageenan-induced foot pad edema assay; assay type: in vivo, rats; settings: 10 mg/kg oral
Description: Male Sprgue-Dawley rats (190–220 g) were fasted with free access to water at least 16 h prior to experiments. The rats were dosed orally with a 1 ml suspension of test compound in vehicle (0.5% methyl cellulose and 0.025% Tween-20) or with vehicle alone. One hour later a subplantar injection of 0.1 ml of 1% solution of caarageenan in 0.9% strile saline was administered to the right hind foot pad. Paw volume was measured with a displacement plethysmometer 2, 3, and 4 h after caarageenan injection.

Cyclooxygenase-2 = target: T1, Cyclooxygenase-2 (Mus musculus, UniProt Q05769); test: COX-2 assay: LPS-stimulated PGE2 production in mouse peritoneal macrophages (RIA); assay type: cell-based, mice; settings: for pIC50: mouse peritoneal macrophages, LPS 1 mg/L 9 h, PGE2 by RIA; for COX-1/COX-2: ratio of IC50 COX-1 to IC50 COX-2
T1 construct: endogenous in cells; host or cells: thioglycollate-elicited peritoneal macrophages of male C57BL-6J mice
T1 sequence (Q05769 18-604): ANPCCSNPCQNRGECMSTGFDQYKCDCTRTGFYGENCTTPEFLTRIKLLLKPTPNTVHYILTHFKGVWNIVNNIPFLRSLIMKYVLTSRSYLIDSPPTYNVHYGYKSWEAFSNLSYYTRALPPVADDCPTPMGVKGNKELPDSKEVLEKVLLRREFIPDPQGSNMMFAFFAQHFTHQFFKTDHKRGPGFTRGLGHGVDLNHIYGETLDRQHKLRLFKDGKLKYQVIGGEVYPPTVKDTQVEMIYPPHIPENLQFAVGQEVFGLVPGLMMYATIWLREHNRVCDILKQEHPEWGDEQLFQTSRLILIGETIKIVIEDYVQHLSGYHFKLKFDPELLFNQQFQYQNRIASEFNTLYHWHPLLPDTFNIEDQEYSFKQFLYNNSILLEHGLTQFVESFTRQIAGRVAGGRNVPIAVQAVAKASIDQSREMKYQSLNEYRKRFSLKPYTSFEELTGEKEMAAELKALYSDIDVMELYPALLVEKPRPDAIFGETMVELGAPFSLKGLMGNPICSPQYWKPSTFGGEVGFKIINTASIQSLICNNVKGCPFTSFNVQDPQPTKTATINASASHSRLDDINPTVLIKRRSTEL
Description: Cell culture: Adherent macrophages were harvested from the peritoneal cells of male mice (C57BL-6J, Level 2, from Experiment Animal Center, Academy of Military Medical Science) 3 d after the injection (ip) of brewer thioglycollate medium (5 mL/100 g body weight). […] After settlement for 2˜3 h, non-adherent cells were washed by D-Hanks' balanced salt solution. […] Cell viability was examined by trypan blue dye exclusion. All incubation procedures were performed with 5% CO2 in humidified air at 37° C.
COX-2 assay: Macrophages were incubated with test compound at different concentrations or solvent (Me2SO) for 1 h and were stimulated with LPS 1 mg/L for 9 h. The amount of PGE2 in supernatants was measured by RIA. The inhibitory ratio was calculated using the same formula as in COX-1 assay section. Cs, Ct, Cc refer to PGE2 concentration in supernatants of LPS, test compound, and control groups, respectively.
(§1) [formula] Cs, Ct, Cc refer to 6-keto-PGF1[…] concentration in supernatants of calcimycin, test compound, and control groups, respectively.
(§2) Statistical analysis: Data were expressed as the mean±SD of more than three independent experiments. Dose-inhibitory effect curves were fit through “uphill dose response curves, variable slope” using Prism, GraphPad version3.00: […]

Cyclooxygenase-1 = target: T2, Cyclooxygenase-1 (Mus musculus, UniProt P22437); test: COX-1 assay: calcimycin-stimulated 6-keto-PGF1 production in mouse peritoneal macrophages (RIA); assay type: cell-based, mice; settings: calcimycin 1 μmol/L 1 h, 6-keto-PGF1 by RIA
T2 construct: endogenous in cells; host or cells: thioglycollate-elicited peritoneal macrophages of male C57BL-6J mice
T2 sequence (P22437 27-602): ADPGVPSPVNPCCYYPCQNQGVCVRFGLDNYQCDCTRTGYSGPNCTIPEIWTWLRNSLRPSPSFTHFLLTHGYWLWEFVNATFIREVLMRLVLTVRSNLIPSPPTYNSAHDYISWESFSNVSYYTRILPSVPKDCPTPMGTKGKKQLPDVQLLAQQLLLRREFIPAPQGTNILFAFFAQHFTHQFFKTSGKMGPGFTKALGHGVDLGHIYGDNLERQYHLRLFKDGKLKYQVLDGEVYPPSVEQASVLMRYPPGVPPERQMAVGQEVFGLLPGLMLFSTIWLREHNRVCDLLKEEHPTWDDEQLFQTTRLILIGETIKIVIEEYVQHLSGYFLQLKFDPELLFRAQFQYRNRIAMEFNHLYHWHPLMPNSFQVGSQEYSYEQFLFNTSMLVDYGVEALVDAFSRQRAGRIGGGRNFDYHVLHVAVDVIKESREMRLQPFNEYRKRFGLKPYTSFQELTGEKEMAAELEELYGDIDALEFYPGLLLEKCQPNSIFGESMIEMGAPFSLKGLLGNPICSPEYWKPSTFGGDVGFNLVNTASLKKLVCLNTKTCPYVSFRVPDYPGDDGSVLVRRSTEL
Description: Cell culture: Adherent macrophages were harvested from the peritoneal cells of male mice (C57BL-6J, Level 2, from Experiment Animal Center, Academy of Military Medical Science) 3 d after the injection (ip) of brewer thioglycollate medium (5 mL/100 g body weight). Shortly, peritoneal cells obtained from 3˜4 mice were mixed and seeded in 48 well cell culture cluster (Costar) at a cell density of 1×10^9 cell/L in RPMI-1640 supplemented with 5% (v/v) newborn calf serum, 100 ku/L penicillin and […] streptomycin. After settlement for 2˜3 h, non-adherent cells were washed by D-Hanks' balanced salt solution. Then macrophages were cultured in RPMI-1640 without serum. Almost all of adherent cells were macrophages as assessed by Giemsa staining. Cell viability was examined by trypan blue dye exclusion. All incubation procedures were performed with 5% CO2 in humidified air at 37° C.
COX-1: assay Macrophages were incubated with test compound at different concentrations or solvent (Me2SO) for 1 h and were stimulated with calcimycin 1 μmol·L^−1 for 1 h. The amount of 6-keto-PGF1[…] (a stable metabolite of PGI2) in supernatants was measured by RIA according to manufacturer's guide. The inhibitory ratio was calculated as
as §1, §2

[2] = 3 h after carrageenan, read-out: inhibitory percentage of edema, 3 hr
[3] = 4 h after carrageenan, read-out: inhibitory percentage of edema, 4 hr

| pIC50 (Cyclooxygenase-2) | pIC50 (Cyclooxygenase-1) | COX-1/COX-2 (Cyclooxygenase-2) | Compound | inhibition at 10 mg/kg [1, 2] | inhibition at 10 mg/kg [1, 3] |
| --- | --- | --- | --- | --- | --- |
| – | – | – | CCCN1CC(c2ccc(C)cc2)=C(c2ccc(S(C)(=O)=O)cc2)C1=O [Example 104, N-Propyl-3-(4-methylsulfonylphenyl)-4-(4-methylphenyl)-2,5-dihydropyrrole-2-one] | 24.5% | 19.3% |
| 6.11 | < 5.00 | – | Cc1ccc(C2=C(c3ccc(S(C)(=O)=O)cc3)C(=O)N(C)C2)cc1 [Example 105, N-Methyl-3-(4-methylsulfonylphenyl)-4-(4-methylphenyl)-2,5-dihydropyrrole-2-one] | 39.2% | 48.2% |
| 6.21 | < 5.00 | – | CCCN1CC(c2ccc(F)cc2)=C(c2ccc(S(C)(=O)=O)cc2)C1=O [Example 106, N-Propyl-3-(4-methylsulfonylphenyl)-4-(4-fluorophenyl)-2,5-dihydropyrrole-2-one] | – | – |
| 6.38 | < 5.00 | – | CS(=O)(=O)c1ccc(C2=C(c3ccc(Cl)cc3)CN(C3CC3)C2=O)cc1 [Example 107, N-Cyclopropyl-3-(4-methylsulfonylphenyl)-4-(4-chlorophenyl)-2,5-dihydropyrrole-2-one] | – | – |
| 6.11 | < 5.00 | – | CS(=O)(=O)c1ccc(C2=C(c3cccc(Cl)c3)CN(C3CC3)C2=O)cc1 [Example 108, N-Cyclopropyl-3-(4-methylsulfonylphenyl)-4-(3-chlorophenyl)-2,5-dihydropyrrole-2-one] | 36.4% | 43.5% |
| 6.38 | < 5.00 | – | CN1CC(c2cccc(Cl)c2)=C(c2ccc(S(C)(=O)=O)cc2)C1=O [Example 109, N-Methyl-3-(4-methylsulfonylphenyl)-4-(3-chlorophenyl)-2,5-dihydropyrrole-2-one] | – | – |
| 6.11 | – | – | CCCN1CC(c2cccc(Cl)c2)=C(c2ccc(S(C)(=O)=O)cc2)C1=O [Example 110, N-Propyl-3-(4-methylsulfonylphenyl)-4-(3-chlorophenyl)-2,5-dihydropyrrole-2-one] | 25.8% | 36.7% |
| 5.75 | < 5.00 | – | CS(=O)(=O)c1ccc(C2=C(c3ccccc3)CN(C3CCCCC3)C2=O)cc1 [Example 112, N-Cyclohexyl-3-(4-methylsulfonylphenyl)-4-phenyl-2,5-dihydropyrrole-2-one] | – | – |
| 6.00 | < 5.00 | – | CS(=O)(=O)c1ccc(C2=C(c3cccc(F)c3)CN(C3CC3)C2=O)cc1 [Example 113, N-Cyclopropyl-3-(4-methylsulfonylphenyl)-4-(3-fluorophenyl)-2,5-dihydropyrrole-2-one] | – | – |
| 7.85 | 5.95 | 78.9 | CN1CC(c2ccc(S(C)(=O)=O)cc2)=C(c2ccccc2)C1=O [Example 114, N-Methyl-3-phenyl-4-(4-methylsulfonylphenyl)-2,5-dihydropyrrole-2-one] | – | – |
| 7.71 | 6.83 | 7.6 | CCCN1CC(c2ccc(S(C)(=O)=O)cc2)=C(c2ccccc2)C1=O [Example 115, N-Propyl-3-phenyl-4-(4-methylsulfonylphenyl)-2,5-dihydropyrrole-2-one] | 22.8% | 27.2% |
| 7.60 | 6.33 | 18.5 | CS(=O)(=O)c1ccc(C2=C(c3ccccc3)C(=O)N(C3CC3)C2)cc1 [Example 116, N-Cyclopropyl-3-phenyl-4-(4-methylsulfonylphenyl)-2,5-dihydropyrrole-2-one] | – | – |
| 7.71 | 6.92 | – | CCCN1CC(c2ccc(S(C)(=O)=O)cc2)=C(c2cccc(C)c2)C1=O [Example 121, N-Propyl-3-(3-methylphenyl)-4-(4-methylsulfonylphenyl)-2,5-dihydropyrrole-2-one] | – | – |
| 7.81 | 6.66 | 14.3 | Cc1cccc(C2=C(c3ccc(S(C)(=O)=O)cc3)CN(C3CC3)C2=O)c1 [Example 126, N-Cyclopropyl-3-(3-methylphenyl)-4-(4-methylsulfonylphenyl)-2,5-dihydropyrrole-2-one] | – | – |
| 7.68 | 6.84 | – | CS(=O)(=O)c1ccc(C2=C(c3ccc(Cl)cc3)C(=O)N(C3CCCCC3)C2)cc1 [Example 127, N-Cyclohexyl-3-(4-chlorophenyl)-4-(4-methylsulfonylphenyl)-2,5-dihydropyrrole-2-one] | – | – |
| 7.18 | < 5.00 | – | CS(=O)(=O)c1ccc(C2=C(c3ccc(F)cc3)C(=O)N(C3CC3)C2)cc1 [Example 128, N-Cyclopropyl-3-(4-fluorophenyl)-4-(4-methylsulfonylphenyl)-2,5-dihydropyrrole-2-one] | – | – |
| 6.00 | < 5.00 | – | CCCN1CC(c2cccc(Br)c2)=C(c2ccc(S(N)(=O)=O)cc2)C1=O [Example 132, N-Propyl-3-(4-aminosulfonylphenyl)-4-(3-bromophenyl)-2,5-dihydropyrrole-2-one] | – | – |
| 6.32 | – | – | CCCN1CC(c2cccc(Cl)c2)=C(c2ccc(S(N)(=O)=O)cc2)C1=O [Example 133, N-Propyl-3-(4-aminosulfonylphenyl)-4-(3-chlorophenyl)-2,5-dihydropyrrole-2-one] | – | – |
| 6.25 | < 5.00 | – | CCCN1CC(c2cccc(F)c2)=C(c2ccc(S(N)(=O)=O)cc2)C1=O [Example 135, N-Propyl-3-(4-aminosulfonylphenyl)-4-(3-fluorophenyl)-2,5-dihydropyrrole-2-one] | – | – |
| 5.77 | < 5.00 | – | NS(=O)(=O)c1ccc(C2=C(c3cccc(Cl)c3)CN(C3CC3)C2=O)cc1 [Example 137, N-Cylcopropyl-3-(4-aminosulfonylphenyl)-4-(3-chlorophenyl)-2,5-dihydropyrrole-2-one] | – | – |
| 7.73 | < 5.00 | – | Cc1cccc(C2=C(c3ccc(S(N)(=O)=O)cc3)CN(C3CC3)C2=O)c1 [Example 141, N-Cylcopropyl-3-(3-methylphenyl)-4-(4-aminosulfonylphenyl)-2,5-dihydropyrrole-2-one] | – | – |
